Results published in patent publication US20050197350A1, “Novel quinoline, tetrahydroquinazoline, and pyrimidine derivatives and methods of treatment related to the use thereof” (TAISHO PHARMACEUTICAL CO., LTD., priority 2003, published 2005).

Test system: MCH receptors
Test: MCH receptor activity class (method not given)
[1] = activity class 1-3: percent of control at 10^-7 M or IC50
[2] = MCH receptor, class by percent of control at 10^-7 M or IC50
[3] = class by percent of control at 10^-7 M or IC50
[4] = class by percent of control at 10^−7 M or IC50
[5] = MCH receptor activity class 1-3 (percent of control at 10^-7 M or IC50)

C[C@@H](CNC[C@H]1CC[C@@H](Nc2nccc(N(C)C)n2)CC1)N(Cc1ccccc1)Cc1ccccc1 [compound 1538]
class [1]: 3 (Class 3 The value of percent of control at 10^−7 M was more than 60% or the value of IC50 was more than 200 nM.)

COc1ccc(OC)c(NC(=S)N[C@H]2CC[C@@H](Nc3nc4c(c(N(C)C)n3)CCCC4)CC2)c1 [compound 1973]
class [2]: 3 (Class 3 The value of percent of control at 10^−7 M was more than 60% or the value of IC50 was more than 200 nM.)

COC(=O)[C@H](CCSC)NC(=O)N[C@H]1CC[C@@H](Nc2nccc(N(C)C)n2)CC1 (relative stereo) [compound 2219]
class [3]: 3 (Class 3 The value of percent of control at 10^−7 M was more than 60% or the value of IC50 was more than 200 nM.)

COc1ccc(C2(C(=O)N[C@H]3CC[C@@H](Nc4ncc(C)c(N(C)C)n4)CC3)CC2)cc1 [compound 2875]
class [4]: 1 (Class 1: The value of percent of control at 10^−7 M was less than 40% or the value of IC50 was less than 50 nM.)

CN(C)c1nc(N[C@H]2CC[C@@H](NC(=O)Nc3ccc(Br)cc3Br)CC2)nc2c1CCCC2 [compound 1709]
class [1]: 2 (Class 2: The value of percent of control at 10^−7 M was from 40% to 60% or the value of IC′50 was from 50 nM to 200 nM.)

CN(C)c1cc(N[C@H]2CC[C@@H](CNC(=O)Nc3ccccc3I)CC2)nc2ccccc12 [compound 2378]
class [5]: 3 (Class 3 The value of percent of control at 10^−7 M was more than 60% or the value of IC50 was more than 200 nM.)

CN(C)c1cc(N[C@H]2CC[C@@H](CNCc3cccc(Br)c3)CC2)nc2ccccc12 [compound 1143]
class (activity class per percent of control at 10^-7 M or IC50): 3 (Class 3 The value of percent of control at 10^−7 M was more than 60% or the value of IC50 was more than 200 nM.)

Cc1cc(N(C)C)nc(N[C@H]2CC[C@@H](C(=O)NCc3ccc(Cl)cc3Cl)CC2)n1 [compound 2807, cis-N-(2,4-dichlorobenzyl)-4-{[4-(dimethylamino)-6-methylpyrimidin-2-yl]amino}cyclohexanecarboxamide]
class [4]: 1 (Class 1: The value of percent of control at 10^−7 M was less than 40% or the value of IC50 was less than 50 nM.)

CCc1cccc(C(=O)N[C@H]2CC[C@@H](Nc3nc(C)cc(N(C)C)n3)CC2)c1 [compound 2970, N-(cis-4-{[4-(dimethylamino)-6-methylpyrimidin-2-yl]amino}cyclohexyl)-3-ethylbenzamide]
class [4]: 3 (Class 3 The value of percent of control at 10^−7 M was more than 60% or the value of IC50 was more than 200 nM.)

COc1cc(OC)cc(C(=O)NC[C@H]2CC[C@@H](Nc3nc(C)cc(N(C)C)n3)CC2)c1 [compound 2711]
class [4]: 2 (Class 2: The value of percent of control at 10^−7 M was from 40% to 60% or the value of IC′50 was from 50 nM to 200 nM.)

COc1cc(OC)c(NC(=S)N[C@H]2CC[C@@H](Nc3cc(N(C)C)c4ccccc4n3)CC2)cc1Cl [compound 2297, N-(5-chloro-2,4-dimethoxyphenyl)-N′-(cis-4-{[4-(dimethylamino)quinolin-2-yl]amino}cyclohexyl)thiourea]
class [5]: 1 (Class 1: The value of percent of control at 10^−7 M was less than 40% or the value of IC50 was less than 50 nM.)

CN(C)c1ccnc(N[C@H]2CC[C@@H](NC(=O)c3cccnc3Sc3ccccc3)CC2)n1 [compound 354]
class [3]: 3 (Class 3 The value of percent of control at 10^−7 M was more than 60% or the value of IC50 was more than 200 nM.)

CN(C)c1ccc(CNC[C@H]2CC[C@@H](Nc3nccc(N(C)C)n3)CC2)cc1 [compound 1272]
class [3]: 3 (Class 3 The value of percent of control at 10^−7 M was more than 60% or the value of IC50 was more than 200 nM.)

COc1cc(F)c(CNC[C@H]2CC[C@@H](Nc3cc(N(C)C)c4ccccc4n3)CC2)cc1OC [compound 1200]
class [3]: 3 (Class 3 The value of percent of control at 10^−7 M was more than 60% or the value of IC50 was more than 200 nM.)

COc1cc(CN[C@H]2CC[C@@H](Nc3nc4c(c(N(C)C)n3)CCCC4)CC2)ccc1O [compound 1362]
class [3]: 3 (Class 3 The value of percent of control at 10^−7 M was more than 60% or the value of IC50 was more than 200 nM.)

COC(=O)c1ccccc1NC(=O)N[C@H]1CC[C@@H](Nc2nc3c(c(N(C)C)n2)CCCC3)CC1 [compound 1844]
class [3]: 3 (Class 3 The value of percent of control at 10^−7 M was more than 60% or the value of IC50 was more than 200 nM.)

Cc1cnc(N[C@H]2CC[C@@H](NC(=O)c3ccccc3)CC2)nc1N(C)C [compound 2904, N-(cis-4-{[4-(dimethylamino)-5-methylpyrimidin-2-yl]amino}cyclohexyl)benzamide]
class [4]: 2 (Class 2: The value of percent of control at 10^−7 M was from 40% to 60% or the value of IC′50 was from 50 nM to 200 nM.)

COc1ccccc1CCNC[C@H]1CC[C@@H](Nc2nccc(N(C)C)n2)CC1 [compound 1531]
class [1]: 3 (Class 3 The value of percent of control at 10^−7 M was more than 60% or the value of IC50 was more than 200 nM.)

CCOC(=O)c1ccc(NC(=O)N[C@H]2CC[C@@H](Nc3nc4c(c(N(C)C)n3)CCCC4)CC2)cc1 [compound 1823]
class [3]: 3 (Class 3 The value of percent of control at 10^−7 M was more than 60% or the value of IC50 was more than 200 nM.)

CCCCCNC(=O)N[C@H]1CC[C@@H](Nc2cc(N(C)C)c3ccccc3n2)CC1 [compound 2133]
class [3]: 3 (Class 3 The value of percent of control at 10^−7 M was more than 60% or the value of IC50 was more than 200 nM.)

C/C(=C\c1ccccc1)C(=O)N[C@H]1CC[C@@H](Nc2nccc(N(C)C)n2)CC1 [compound 305]
class [3]: 3 (Class 3 The value of percent of control at 10^−7 M was more than 60% or the value of IC50 was more than 200 nM.)

Cc1cc(N(C)C)nc(N[C@H]2CC[C@@H](NC(=O)c3ccc(C)c(F)c3)CC2)n1 [compound 2965, N-(cis-4-{[4-(dimethylamino)-6-methylpyrimidin-2-yl]amino}cyclohexyl)-3-fluoro-4-methylbenzamide]
class [4]: 1 (Class 1: The value of percent of control at 10^−7 M was less than 40% or the value of IC50 was less than 50 nM.)

COc1ccc(OC)c(CC(=O)N[C@H]2CC[C@@H](Nc3cc(N(C)C)c4ccccc4n3)CC2)c1 [compound 35]
class [2]: 3 (Class 3 The value of percent of control at 10^−7 M was more than 60% or the value of IC50 was more than 200 nM.)

CCOc1ccccc1CN[C@H]1CC[C@@H](Nc2nccc(N(C)C)n2)CC1 [compound 1206]
class [3]: 3 (Class 3 The value of percent of control at 10^−7 M was more than 60% or the value of IC50 was more than 200 nM.)

CN(C)c1nc(N[C@H]2CC[C@@H](NC(=O)Nc3cccc(Cl)c3Cl)CC2)nc2c1CCCC2 [compound 1795]
class [3]: 2 (Class 2: The value of percent of control at 10^−7 M was from 40% to 60% or the value of IC′50 was from 50 nM to 200 nM.)

CN(C)c1cc(N[C@H]2CC[C@@H](NC(=O)c3cccs3)CC2)nc2ccccc12 [compound 52]
class [2]: 3 (Class 3 The value of percent of control at 10^−7 M was more than 60% or the value of IC50 was more than 200 nM.)

CN(C)c1cc(N[C@H]2CC[C@@H](CNC(=O)Oc3ccc4ccccc4c3)CC2)nc2ccccc12 [compound 1569]
class [1]: 3 (Class 3 The value of percent of control at 10^−7 M was more than 60% or the value of IC50 was more than 200 nM.)

Cc1ccc(C(=O)N[C@H]2CC[C@@H](Nc3cc(N(C)C)c4ccccc4n3)CC2)cc1 [compound 51]
class [2]: 3 (Class 3 The value of percent of control at 10^−7 M was more than 60% or the value of IC50 was more than 200 nM.)

Cc1ccc([N+](=O)[O-])c(NC(=O)NC[C@H]2CC[C@@H](Nc3nccc(N(C)C)n3)CC2)c1C [compound 2443]
class [5]: 1 (Class 1: The value of percent of control at 10^−7 M was less than 40% or the value of IC50 was less than 50 nM.)

CN(C)c1nc(N[C@H]2CC[C@@H](CNC(=O)Nc3c(Cl)cc(Cl)cc3Cl)CC2)nc2c1CCCC2 [compound 2461]
class [5]: 1 (Class 1: The value of percent of control at 10^−7 M was less than 40% or the value of IC50 was less than 50 nM.)

CN(C)c1ccnc(N[C@H]2CC[C@@H](CNC(=O)c3ccc(F)cc3Cl)CC2)n1 [compound 406]
class [3]: 3 (Class 3 The value of percent of control at 10^−7 M was more than 60% or the value of IC50 was more than 200 nM.)

Cc1ccc(NC(=O)N[C@H]2CC[C@@H](Nc3nc4c(c(N(C)C)n3)CCCC4)CC2)cc1[N+](=O)[O-] [compound 1894]
class [3]: 3 (Class 3 The value of percent of control at 10^−7 M was more than 60% or the value of IC50 was more than 200 nM.)

CN(C)c1cc(N[C@H]2CC[C@@H](CNC(=O)c3cc(F)cc(C(F)(F)F)c3)CC2)nc2ccccc12 [compound 165]
class [2]: 3 (Class 3 The value of percent of control at 10^−7 M was more than 60% or the value of IC50 was more than 200 nM.)

CCCCCNC(=O)N[C@H]1CC[C@@H](Nc2nccc(N(C)C)n2)CC1 [compound 2223]
class [3]: 3 (Class 3 The value of percent of control at 10^−7 M was more than 60% or the value of IC50 was more than 200 nM.)

CCOC(=O)c1ccc(NC(=S)N[C@H]2CC[C@@H](Nc3nc4c(c(N(C)C)n3)CCCC4)CC2)cc1 [compound 2013]
class [2]: 3 (Class 3 The value of percent of control at 10^−7 M was more than 60% or the value of IC50 was more than 200 nM.)

Cc1ccc(Oc2ncccc2C(=O)N[C@H]2CC[C@@H](Nc3nccc(N(C)C)n3)CC2)cc1 [compound 355, N-(cis-4-{[4-(dimethylamino)pyrimidin-2-yl]amino}cyclohexyl)-2-(4-methylphenoxy)nicotinamide]
class [3]: 1 (Class 1: The value of percent of control at 10^−7 M was less than 40% or the value of IC50 was less than 50 nM.)

CN(C)c1cc(N[C@H]2CC[C@@H](NC(=O)c3cc(F)cc(F)c3)CC2)nc2ccccc12 [compound 34, N-(cis-4-{[4-(dimethylamino)quinolin-2-yl]amino}cyclohexyl)-3,5-difluorobenzamide]
class [2]: 2 (Class 2: The value of percent of control at 10^−7 M was from 40% to 60% or the value of IC′50 was from 50 nM to 200 nM.)

CN(C)c1nc(N[C@H]2CC[C@@H](CNCCCOc3ccccc3)CC2)nc2c1CCCC2 [compound 1505]
class [3]: 3 (Class 3 The value of percent of control at 10^−7 M was more than 60% or the value of IC50 was more than 200 nM.)
